From patent US10100097B2, “GIP-GLP-1 dual agonist compounds and methods” (Zealand Pharma A/S, priority 2012, dated 2018)
Numbered stars: 1 amine (or outer) side, 2 acyl side, 3 side chain; on linkers, the order of the positions; unused ones are H or OH. Square brackets hold non-standard residues; d marks the D form. Side chains are listed from the residue outwards. Peptide text beside a SMILES is read from it. * marks the point of attachment. γGlu = O=C(O)[C@H](CCC(=O)[*:2])N[*:1]; Palmitoyl = CCCCCCCCCCCCCCCC(=O)*; Aib = CC(C)(N)C(=O)O

Target: T1, human GLP-1 R (Homo sapiens, UniProt P43220)
T1 construct: expressed in transfected cells
T1 sequence (P43220 24-463): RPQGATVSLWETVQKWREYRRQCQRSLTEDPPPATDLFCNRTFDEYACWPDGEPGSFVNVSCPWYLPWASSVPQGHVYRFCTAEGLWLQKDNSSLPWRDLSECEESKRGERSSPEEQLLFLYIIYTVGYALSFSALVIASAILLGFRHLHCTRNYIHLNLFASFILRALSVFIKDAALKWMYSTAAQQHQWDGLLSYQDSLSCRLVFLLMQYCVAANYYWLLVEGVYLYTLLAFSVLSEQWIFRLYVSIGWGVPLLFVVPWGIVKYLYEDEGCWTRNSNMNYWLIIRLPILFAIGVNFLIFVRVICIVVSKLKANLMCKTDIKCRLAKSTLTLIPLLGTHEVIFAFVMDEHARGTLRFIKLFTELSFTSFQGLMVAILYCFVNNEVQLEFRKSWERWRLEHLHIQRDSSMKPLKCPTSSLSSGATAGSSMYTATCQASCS
Experiment: Human GLP-1 receptor (GLP-1 R) activity assay, cAMP induction (AlphaScreen cAMP kit)
Assay type: cell-based
Conditions: HEK293 cells expressing the human GLP-1 R, 15 min at 37° C., average values of multiple determinations, read-out: GLP1 R (EC50 in nM)
Protocol: Human GIP Receptor (GIP R) and GLP-1 Receptor (GLP-1 R) Activity Assay
In vitro effects of peptide conjugates of the invention were assessed by measuring the induction of cAMP following stimulation of the respective receptor by GIP, GLP1 or analogues of these, as outlined in the invention, using the AlphaSceen® cAMP kit from Perkin-Elmer according to instructions. Briefly. HEK293 cells expressing the human GIP R or GLP-1 R (stable cell lines generated through transfection of the cDNA for human GIP R or GLP-1 and selection of stable clones) were seeded at 30,000 cells/well in 96-well microtiter plates coated with 0.01% poly-L-lysine, and grown for 1 day in culture in 200 μl growth medium (DMEM, 10% FCS, Penicillin (100 IU/ml), Streptomycin (100 μg/ml)). On the day of analysis, growth medium was removed and the cells were washed once with […] Tyrode's buffer (Tyrode's Salts (9.6 g/1), 10 mM HEPES, pH 7.4). […] The Assay buffer was removed and cells are lysed in 80 μl Lysis buffer (0.1% w/v BSA, 5 mM HEPES, 0.3% v/v Tween-20) per well. From each well 10 μl lysed cells was transferred to a 384-well plate and mixed with 15 μl bead-mix (1 Unit/15 μl anti-cAMP Acceptor Beads, 1 Unit/15 μl Donor Beads, and 1 Unit/15 μl Biotinylated cAMP in Assay Buffer). The plates were mixed and incubated in the dark for an hour at room temperature before measuring using an Envision™ plate reader (Perkin-Elmer).

EC50 [nM]	SMILES
0.031	CCCCCCCCCCCCCCCC(=O)N[C@@H](CCC(=O)NCCCC[C@H](NC(=O)[C@H](CCC(=O)O)NC(=O)[C@H](CC(=O)O)NC(=O)[C@H](CC(C)C)NC(=O)[C@H](Cc1ccc(O)cc1)NC(=O)[C@@H](NC(=O)[C@H](CO)NC(=O)[C@H](Cc1ccc(O)cc1)NC(=O)[C@H](CC(=O)O)NC(=O)[C@H](CO)NC(=O)[C@@H](NC(=O)[C@H](Cc1ccccc1)NC(=O)[C@@H](NC(=O)CNC(=O)[C@H](CCC(=O)O)NC(=O)C(C)(C)NC(=O)[C@@H](N)Cc1ccc(O)cc1)[C@@H](C)O)[C@@H](C)O)[C@@H](C)CC)C(=O)N[C@@H](C)C(=O)N[C@@H](C)C(=O)N[C@@H](CCCCN)C(=O)N[C@@H](CCC(=O)O)C(=O)N[C@@H](Cc1ccccc1)C(=O)N[C@H](C(=O)N[C@@H](CCC(=O)O)C(=O)N[C@@H](Cc1c[nH]c2ccccc12)C(=O)N[C@@H](CC(C)C)C(=O)N[C@@H](CCC(=O)O)C(=O)N[C@@H](CO)C(=O)N[C@@H](C)C(N)=O)[C@@H](C)CC)C(=O)O [Compound 34] (H-Y[Aib]EGTFTSDYSIYLDEK([γGlu-Palmitoyl])AAKEFIEWLESA-NH2)
0.01	CC[C@H](C)[C@H](NC(=O)[C@H](CO)NC(=O)[C@H](Cc1ccc(O)cc1)NC(=O)[C@H](CC(=O)O)NC(=O)[C@H](CO)NC(=O)[C@@H](NC(=O)[C@H](Cc1ccccc1)NC(=O)[C@@H](NC(=O)CNC(=O)[C@H](CCC(=O)O)NC(=O)C(C)(C)NC(=O)[C@@H](N)Cc1ccc(O)cc1)[C@@H](C)O)[C@@H](C)O)C(=O)N[C@@H](C)C(=O)N[C@@H](CC(C)C)C(=O)N[C@@H](CC(=O)O)C(=O)N[C@@H](CCCCN)C(=O)N[C@@H](CCCCN)C(=O)N[C@@H](C)C(=O)N[C@@H](CCC(N)=O)C(=O)N[C@@H](CCCNC(=N)N)C(=O)N[C@@H](C)C(=O)N[C@@H](Cc1ccccc1)C(=O)N[C@H](C(=O)N[C@@H](CC(N)=O)C(=O)N[C@@H](Cc1c[nH]c2ccccc12)C(=O)N[C@@H](CC(C)C)C(=O)N[C@@H](CC(C)C)C(=O)N[C@@H](C)C(=O)NC(C)(C)C(=O)N[C@@H](CCCCN)C(N)=O)C(C)C [Compound 12] (H-Y[Aib]EGTFTSDYSIALDKKAQRAFVNWLLA[Aib]K-NH2)
0.041	CCCCCCCCCCCCCCCC(=O)N[C@@H](CCC(=O)NCCCC[C@H](NC(=O)[C@H](CCC(=O)O)NC(=O)[C@H](CC(=O)O)NC(=O)[C@H](CC(C)C)NC(=O)[C@H](Cc1ccc(O)cc1)NC(=O)[C@@H](NC(=O)[C@H](CO)NC(=O)[C@H](Cc1ccc(O)cc1)NC(=O)[C@H](CC(=O)O)NC(=O)[C@H](CO)NC(=O)[C@@H](NC(=O)[C@H](Cc1ccccc1)NC(=O)[C@@H](NC(=O)CNC(=O)[C@H](CCC(=O)O)NC(=O)C(C)(C)NC(=O)[C@@H](N)Cc1ccc(O)cc1)[C@@H](C)O)[C@@H](C)O)[C@@H](C)CC)C(=O)N[C@@H](C)C(=O)N[C@@H](C)C(=O)N[C@@H](CCCCN)C(=O)N[C@@H](CC(=O)O)C(=O)N[C@@H](Cc1ccccc1)C(=O)N[C@H](C(=O)N[C@@H](CCC(=O)O)C(=O)N[C@@H](Cc1c[nH]c2ccccc12)C(=O)N[C@@H](CC(C)C)C(=O)N[C@@H](CCC(=O)O)C(=O)N[C@@H](CO)C(=O)N[C@@H](C)C(N)=O)C(C)C)C(=O)O [Compound 48] (H-Y[Aib]EGTFTSDYSIYLDEK([γGlu-Palmitoyl])AAKDFVEWLESA-NH2)
0.011	CC[C@H](C)[C@H](NC(=O)[C@H](CO)NC(=O)[C@H](Cc1ccc(O)cc1)NC(=O)[C@H](CC(=O)O)NC(=O)[C@H](CO)NC(=O)[C@@H](NC(=O)[C@H](Cc1ccccc1)NC(=O)[C@@H](NC(=O)CNC(=O)[C@H](CCC(=O)O)NC(=O)C(C)(C)NC(=O)[C@@H](N)Cc1ccc(O)cc1)[C@@H](C)O)[C@@H](C)O)C(=O)N[C@@H](Cc1ccc(O)cc1)C(=O)N[C@@H](CC(C)C)C(=O)N[C@@H](CCC(=O)O)C(=O)N[C@@H](CCCCN)C(=O)N[C@@H](CCCCN)C(=O)N[C@@H](C)C(=O)N[C@@H](CCC(N)=O)C(=O)N[C@@H](CCCCN)C(=O)N[C@@H](CCC(=O)O)C(=O)N[C@@H](Cc1ccccc1)C(=O)N[C@H](C(=O)N[C@@H](CCC(=O)O)C(=O)N[C@@H](Cc1c[nH]c2ccccc12)C(=O)N[C@@H](CC(C)C)C(=O)N[C@@H](CC(C)C)C(=O)N[C@@H](CO)C(=O)N[C@@H](C)C(N)=O)C(C)C [Compound 39] (H-Y[Aib]EGTFTSDYSIYLEKKAQKEFVEWLLSA-NH2)
0.011	CC[C@H](C)[C@H](NC(=O)[C@H](CO)NC(=O)[C@H](Cc1ccc(O)cc1)NC(=O)[C@H](CC(=O)O)NC(=O)[C@H](CO)NC(=O)[C@@H](NC(=O)[C@H](Cc1ccccc1)NC(=O)[C@@H](NC(=O)CNC(=O)[C@H](CCC(=O)O)NC(=O)C(C)(C)NC(=O)[C@@H](N)Cc1ccc(O)cc1)[C@@H](C)O)[C@@H](C)O)C(=O)N[C@@H](Cc1ccc(O)cc1)C(=O)N[C@@H](CC(C)C)C(=O)N[C@@H](CCC(=O)O)C(=O)N[C@@H](CO)C(=O)N[C@@H](CCCCN)C(=O)N[C@@H](C)C(=O)N[C@@H](C)C(=O)N[C@@H](Cc1c[nH]cn1)C(=O)N[C@@H](CC(=O)O)C(=O)N[C@@H](Cc1ccccc1)C(=O)N[C@H](C(=O)N[C@@H](CCC(=O)O)C(=O)N[C@@H](Cc1c[nH]c2ccccc12)C(=O)N[C@@H](CC(C)C)C(=O)N[C@@H](CC(C)C)C(=O)N[C@@H](CO)C(=O)N[C@@H](C)C(N)=O)C(C)C [Compound 41] (H-Y[Aib]EGTFTSDYSIYLESKAAHDFVEWLLSA-NH2)
0.018	CC[C@H](C)[C@H](NC(=O)[C@H](CO)NC(=O)[C@H](Cc1ccc(O)cc1)NC(=O)[C@H](CC(=O)O)NC(=O)[C@H](CO)NC(=O)[C@@H](NC(=O)[C@H](Cc1ccccc1)NC(=O)[C@@H](NC(=O)CNC(=O)[C@H](CCC(=O)O)NC(=O)C(C)(C)NC(=O)[C@@H](N)Cc1ccc(O)cc1)[C@@H](C)O)[C@@H](C)O)C(=O)N[C@@H](Cc1ccc(O)cc1)C(=O)N[C@@H](CC(C)C)C(=O)N[C@@H](CCC(=O)O)C(=O)N[C@@H](CCCCN)C(=O)N[C@@H](CCCCN)C(=O)N[C@@H](C)C(=O)N[C@@H](C)C(=O)N[C@@H](CCCCN)C(=O)N[C@@H](CC(=O)O)C(=O)N[C@@H](Cc1ccccc1)C(=O)N[C@H](C(=O)N[C@@H](CCC(=O)O)C(=O)N[C@@H](Cc1c[nH]c2ccccc12)C(=O)N[C@@H](CC(C)C)C(=O)N[C@@H](CC(C)C)C(=O)N[C@@H](CO)C(=O)N[C@@H](C)C(N)=O)C(C)C [Compound 37] (H-Y[Aib]EGTFTSDYSIYLEKKAAKDFVEWLLSA-NH2)

SMILES	EC50 [nM]
CCCCCCCCCCCCCCCC(=O)N[C@@H](CCC(=O)NCCCC[C@H](NC(=O)[C@H](CCCCN)NC(=O)[C@H](CC(=O)O)NC(=O)[C@H](CC(C)C)NC(=O)[C@H](Cc1ccc(O)cc1)NC(=O)[C@@H](NC(=O)[C@H](CO)NC(=O)[C@H](Cc1ccc(O)cc1)NC(=O)[C@H](CC(=O)O)NC(=O)[C@H](CO)NC(=O)[C@@H](NC(=O)[C@H](Cc1ccccc1)NC(=O)[C@@H](NC(=O)CNC(=O)[C@H](CCC(=O)O)NC(=O)C(C)(C)NC(=O)[C@@H](N)Cc1ccc(O)cc1)[C@@H](C)O)[C@@H](C)O)[C@@H](C)CC)C(=O)N[C@@H](C)C(=O)N[C@@H](CCC(N)=O)C(=O)N[C@@H](CCCNC(=N)N)C(=O)N[C@@H](C)C(=O)N[C@@H](Cc1ccccc1)C(=O)N[C@H](C(=O)N[C@@H](CC(N)=O)C(=O)N[C@@H](Cc1c[nH]c2ccccc12)C(=O)N[C@@H](CC(C)C)C(=O)N[C@@H](CC(C)C)C(=O)N[C@@H](C)C(=O)NC(C)(C)C(=O)N[C@@H](CCCCN)C(=O)N1CCC[C@H]1C(=O)N[C@@H](CO)C(=O)N[C@@H](CO)C(=O)NCC(=O)N[C@@H](C)C(=O)N1CCC[C@H]1C(=O)N1CCC[C@H]1C(=O)N1CCC[C@H]1C(=O)N[C@@H](CO)C(N)=O)C(C)C)C(=O)O [Compound 35]	0.022
